Measured values taken from the NIST ThermoML archive (doi:10.1016/j.fluid.2012.08.030).
Numbers after ± are expanded uncertainties.

How the values were obtained:
[1] = Liquid; for mass density: 101 kPa, Vibrating tube method; for vapor or sublimation pressure: Ebulliometric method (Recirculating still)
[2] = xn = mol fraction of the nth substance listed; conditions: 101 kPa, Liquid, Vibrating tube method

CCCCOCCO [2-butoxyethan-1-ol]
[1]
Conditions	mass density [kg/m3]	vapor or sublimation pressure [kPa]
303.15 K	892.28 ± 0.12	–
308.15 K	888.19 ± 0.11	–
313.15 K	884.17 ± 0.12	–
318.15 K	880.02 ± 0.12	–
406.8 K	–	28.1 ± 6
412.1 K	–	34.2 ± 6
417.35 K	–	41.3 ± 6
421.57 K	–	47.9 ± 6
424.9 K	–	53.7 ± 6
428.43 K	–	60.5 ± 6
432.22 K	–	68.6 ± 6
435.52 K	–	76.4 ± 6
437.42 K	–	81.2 ± 6
440.2 K	–	88.7 ± 6
442.49 K	–	95.3 ± 6

CCCCOCCO [2-butoxyethan-1-ol] + CN1CCCC1=O
mass density [kg/m3], [2]
Conditions	303.15 K	308.15 K	313.15 K	318.15 K
x2 = 0	892.28 ± 0.11	888.19 ± 0.11	884.17 ± 0.12	880.02 ± 0.12
x2 = 0.132	914.72 ± 0.35	911.2 ± 0.35	907.8 ± 0.36	904.37 ± 0.37
x2 = 0.255	934.22 ± 0.32	931.07 ± 0.33	928.06 ± 0.33	925.08 ± 0.34
x2 = 0.369	951.2 ± 0.3	948.27 ± 0.31	945.46 ± 0.31	942.72 ± 0.31
x2 = 0.477	966.04 ± 0.28	963.19 ± 0.28	960.43 ± 0.28	957.74 ± 0.28
x2 = 0.577	979 ± 0.26	976.12 ± 0.26	973.27 ± 0.26	970.48 ± 0.26
x2 = 0.672	990.36 ± 0.25	987.35 ± 0.24	984.32 ± 0.24	981.3 ± 0.23
x2 = 0.761	1000.3 ± 0.23	997.1 ± 0.23	993.8 ± 0.22	990.46 ± 0.21
x2 = 0.845	1009.04 ± 0.22	1005.59 ± 0.21	1001.93 ± 0.2	998.18 ± 0.19
x2 = 0.925	1016.72 ± 0.21	1012.95 ± 0.2	1008.89 ± 0.19	1004.66 ± 0.18
x2 = 0.948	1018.83 ± 0.2	1014.97 ± 0.19	1010.77 ± 0.18	1006.39 ± 0.17
x2 = 0.963	1020.19 ± 0.2	1016.26 ± 0.19	1011.97 ± 0.18	1007.49 ± 0.17
x2 = 0.978	1021.52 ± 0.2	1017.52 ± 0.19	1013.14 ± 0.18	1008.55 ± 0.16
x2 = 0.993	1022.82 ± 0.2	1018.74 ± 0.18	1014.27 ± 0.17	1009.57 ± 0.16

CCOCCO [2-ethoxyethan-1-ol]
[1]
Conditions	mass density [kg/m3]	vapor or sublimation pressure [kPa]
303.15 K	921.21 ± 0.11	–
308.15 K	916.48 ± 0.11	–
313.15 K	911.88 ± 0.11	–
318.15 K	907.79 ± 0.11	–
373.48 K	–	28.1 ± 6
378.36 K	–	34.2 ± 6
383.18 K	–	41.3 ± 6
387.06 K	–	47.9 ± 6
390.12 K	–	53.7 ± 6
393.37 K	–	60.5 ± 6
396.86 K	–	68.6 ± 6
399.9 K	–	76.4 ± 6
401.65 K	–	81.2 ± 6
404.22 K	–	88.7 ± 6
406.33 K	–	95.3 ± 6

CCOCCO [2-ethoxyethan-1-ol] + CN1CCCC1=O
mass density [kg/m3], [2]
Conditions	303.15 K	308.15 K	313.15 K	318.15 K
x2 = 0	921.21 ± 0.11	916.48 ± 0.11	911.88 ± 0.11	907.79 ± 0.11
x2 = 0.101	936.06 ± 0.3	931.85 ± 0.31	927.8 ± 0.32	924.28 ± 0.33
x2 = 0.202	949.87 ± 0.28	946.07 ± 0.29	942.45 ± 0.3	939.35 ± 0.3
x2 = 0.302	962.64 ± 0.26	959.15 ± 0.27	955.84 ± 0.27	953.02 ± 0.28
x2 = 0.402	974.38 ± 0.24	971.1 ± 0.24	967.97 ± 0.25	965.3 ± 0.25
x2 = 0.503	985.1 ± 0.22	981.93 ± 0.22	978.86 ± 0.22	976.19 ± 0.22
x2 = 0.602	994.78 ± 0.2	991.62 ± 0.2	988.5 ± 0.2	985.68 ± 0.2
x2 = 0.702	1003.45 ± 0.18	1000.2 ± 0.18	996.91 ± 0.18	993.82 ± 0.17
x2 = 0.802	1011.12 ± 0.17	1007.68 ± 0.17	1004.1 ± 0.16	1000.58 ± 0.15
x2 = 0.851	1014.58 ± 0.16	1011.01 ± 0.16	1007.23 ± 0.15	1003.46 ± 0.14
x2 = 0.901	1017.78 ± 0.15	1014.06 ± 0.15	1010.06 ± 0.14	1006 ± 0.13
x2 = 0.926	1019.29 ± 0.15	1015.48 ± 0.14	1011.37 ± 0.13	1007.14 ± 0.12
x2 = 0.951	1020.74 ± 0.15	1016.84 ± 0.14	1012.59 ± 0.13	1008.2 ± 0.12
x2 = 0.982	1022.5 ± 0.14	1018.47 ± 0.14	1014.05 ± 0.13	1009.43 ± 0.12
